From PMC7391767, “Molecular mechanisms underlying menthol binding and activation of TRPM8 ion channel” (Nature Communications, 2020)
“And” between values parts separate entries of the source, which are not always exact repeats. Equal entries are not always repeated.

Columns and labels:
Assay type in all cases: cell-based
Design in all cases: Shifts in ANAP emission, Ave: unit: nm
ANAP-incorporated TRPM8 [1] = target: T1, ANAP-incorporated TRPM8 (Mus musculus, UniProt Q8R4D5, F872X); conditions: ANAP incorporation site F872
T1 construct: expressed in transfected cells; host or cells: HEK293 cells, co-transfected with the pANAP vector
Procedure: (§1) As fluorescence emission peak of ANAP shifts to a longer wavelength in more hydrophilic environment, we measured the shift in ANAP emission peak to report conformational changes. Fluorescence properties of ANAP may also be affected by other factors such as temperature and pH[31], so we performed our ANAP experiments always at room temperature (22 ± 1°C). To control for changes in solution pH, we added 3 mM HEPES in ANAP imaging solution to buffer the pH at 7.2. We genetically integrated ANAP into a specific site on TRPM8 with special tRNA and synthetase encoded by pANAP vector (Fig. 5d).
(§2) L-ANAP methyl ester was purchased from AsisChem. pANAP vector was purchased from Addgene. ANAP was incorporated into TRPM8 by introducing a TAG amber stop codon mutation as previously reported. Briefly, after co-transfection of both TRPM8 and pANAP vectors, ANAP was directly added to the culture medium to the final concentration of 20 µM. After 1–2 days, ANAP-containing culture medium was completely changed. Cells were further cultured in ANAP-free medium overnight before experiments.
(§3) ANAP fluorescence was excited by the Ar laser with a 375/28 excitation filter, a T400lp dichroic mirror, and a 435LP emission filter on an inverted fluorescence microscope (Nikon TE2000-U) using a ×40 oil-immersion objective (NA 1.3). Emission spectrum of ANAP was imaged with an Acton SpectraPro 2150i spectrograph in conjunction with an optiMOS CCD camera (Qimaging, USA). We determined the ANAP emission peak value by fitting the emission spectrum with a skewed Gauss distribution in Igor Pro version 6.1 (WaveMatrix), and then the difference in emission peak values measured in the absence and presence of menthol was reported as the shift of ANAP emission.

ANAP-incorporated TRPM8 [2] = target: T2, ANAP-incorporated TRPM8 (Mus musculus, UniProt Q8R4D5, Y999X); conditions: ANAP incorporation site Y999; average shift, menthol activated vs resting state
T2 construct: expressed in transfected cells; host or cells: HEK293 cells, co-transfected with the pANAP vector
Procedure: as §1, §2, §3

ANAP-incorporated TRPM8 [3] = target: T3, ANAP-incorporated TRPM8 (Mus musculus, UniProt Q8R4D5, V791X)
T3 construct: expressed in transfected cells; host or cells: HEK293 cells, co-transfected with the pANAP vector
Procedure: as §1, §2, §3

ANAP-incorporated TRPM8 [4] = target: T4, ANAP-incorporated TRPM8 (Mus musculus, UniProt Q8R4D5, W954X); conditions: ANAP incorporation site W954, menthol activated vs resting state
T4 construct: expressed in transfected cells; host or cells: HEK293 cells, co-transfected with the pANAP vector
Procedure: as §1, §2, §3

ANAP-incorporated TRPM8 [5] = target: T5, ANAP-incorporated TRPM8 (Mus musculus, UniProt Q8R4D5, A875X)
T5 construct: expressed in transfected cells; host or cells: HEK293 cells, co-transfected with the pANAP vector
Procedure: as §1, §2, §3

ANAP-incorporated TRPM8 [6] = target: T6, ANAP-incorporated TRPM8 (Mus musculus, UniProt Q8R4D5, N852X); conditions: ANAP incorporation site N852
T6 construct: expressed in transfected cells; host or cells: HEK293 cells, co-transfected with the pANAP vector
Procedure: as §1, §2, §3

ANAP-incorporated TRPM8 [7] = target: T7, ANAP-incorporated TRPM8 (Mus musculus, UniProt Q8R4D5, T795X); conditions: ANAP incorporation site T795; average shift, menthol activated vs resting state
T7 construct: expressed in transfected cells; host or cells: HEK293 cells, co-transfected with the pANAP vector
Procedure: as §1, §2, §3

ANAP-incorporated TRPM8 [8] = target: T8, ANAP-incorporated TRPM8 (Mus musculus, UniProt Q8R4D5, I865X); conditions: ANAP incorporation site I865
T8 construct: expressed in transfected cells; host or cells: HEK293 cells, co-transfected with the pANAP vector
Procedure: as §1, §2, §3

ANAP-incorporated TRPM8 [9] = target: T9, ANAP-incorporated TRPM8 (Mus musculus, UniProt Q8R4D5, N821X); conditions: ANAP incorporation site N821
T9 construct: expressed in transfected cells; host or cells: HEK293 cells, co-transfected with the pANAP vector
Procedure: as §1, §2, §3

ANAP-incorporated TRPM8 [10] = target: T10, ANAP-incorporated TRPM8 (Mus musculus, UniProt Q8R4D5, P958X)
T10 construct: expressed in transfected cells; host or cells: HEK293 cells, co-transfected with the pANAP vector
Procedure: as §1, §2, §3

ANAP-incorporated TRPM8 [11] = target: T11, ANAP-incorporated TRPM8 (Mus musculus, UniProt Q8R4D5, S819X); conditions: ANAP incorporation site S819; average shift, menthol activated vs resting state
T11 construct: expressed in transfected cells; host or cells: HEK293 cells, co-transfected with the pANAP vector
Procedure: as §1, §2, §3

ANAP-incorporated TRPM8 [12] = target: T12, ANAP-incorporated TRPM8 (Mus musculus, UniProt Q8R4D5, L943X); conditions: ANAP incorporation site L943
T12 construct: expressed in transfected cells; host or cells: HEK293 cells, co-transfected with the pANAP vector
Procedure: as §1, §2, §3

ANAP-incorporated TRPM8 [13] = target: T13, ANAP-incorporated TRPM8 (Mus musculus, UniProt Q8R4D5, Q1003X); conditions: ANAP incorporation site Q1003; average shift, menthol activated vs resting state
T13 construct: expressed in transfected cells; host or cells: HEK293 cells, co-transfected with the pANAP vector
Procedure: as §1, §2, §3

ANAP-incorporated TRPM8 [14] = target: T14, ANAP-incorporated TRPM8 (Mus musculus, UniProt Q8R4D5, L864X); conditions: ANAP incorporation site L864
T14 construct: expressed in transfected cells; host or cells: HEK293 cells, co-transfected with the pANAP vector
Procedure: as §1, §2, §3

ANAP-incorporated TRPM8 [15] = target: T15, ANAP-incorporated TRPM8 (Mus musculus, UniProt Q8R4D5, T922X)
T15 construct: expressed in transfected cells; host or cells: HEK293 cells, co-transfected with the pANAP vector
Procedure: as §1, §2, §3

[16] = average shift, menthol activated vs resting state
[17] = menthol activated vs resting state, single measurement

CC(C)[C@@H]1CC[C@@H](C)C[C@H]1O [menthol, (−)-menthol]
Shifts_ave (ANAP-incorporated TRPM8 [1]; [16]): 0.53 nm | Emission Peak at menthol activated state (ANAP-incorporated TRPM8 [1]; single measurement): 477.57 nm and 487.64 nm and 475.42 nm and 485.75 nm and 480.39 nm | Shifts_ave (ANAP-incorporated TRPM8 [2]): 0.79 nm | Shifts in ANAP emission, Ave (ANAP-incorporated TRPM8 [3]; ANAP at V791): 2.05 | Shifts_ave (ANAP-incorporated TRPM8 [3]; ANAP incorporation site V791, average shift, menthol activated vs resting state): 2.05 nm | Shifts_ave (ANAP-incorporated TRPM8 [4]; average shift): 1.45 nm | Shifts in emission (ANAP-incorporated TRPM8 [4]; single measurement): 1.59 nm and 1.14 nm and 1.76 nm and 1.68 nm and 1.08 nm | Shifts in ANAP emission, Ave (ANAP-incorporated TRPM8 [5]; ANAP at A875): 6.61 | shift of ANAP emission peak (ANAP-incorporated TRPM8 [5]; ANAP at A875 site, redshifted, menthol-induced (0.5 mM), n = 5): 6.6 ± 0.4 nm | Shifts_ave (ANAP-incorporated TRPM8 [5]; ANAP incorporation site A875, average shift, menthol activated vs resting state): 6.61 nm | Shifts in emission (ANAP-incorporated TRPM8 [5]; ANAP incorporation site A875, menthol activated vs resting state, single measurement): 6.25 nm and 6.04 nm and 7.45 nm and 7.64 nm and 5.66 nm | Emission Peak at menthol activated state (ANAP-incorporated TRPM8 [5]; ANAP incorporation site A875, single measurement): 495.85 nm and 493.43 nm and 494.62 nm and 492.72 nm and 492.66 nm | Shifts_ave (ANAP-incorporated TRPM8 [6]; [16]): 1.13 nm | Shifts in emission (ANAP-incorporated TRPM8 [6]; [17]): 1.32 nm and 1.2 nm and 0.75 nm and 1.07 nm | Emission Peak at menthol activated state (ANAP-incorporated TRPM8 [6]; single measurement): 487.02 nm and 492.63 nm and 483.01 nm and 479.1 nm and 483.68 nm | Shifts_ave (ANAP-incorporated TRPM8 [7]): 1.996 nm | Shifts_ave (ANAP-incorporated TRPM8 [8]; [16]): 0.00167 nm | Emission Peak at menthol activated state (ANAP-incorporated TRPM8 [8]; single measurement): 471.49 nm and 482.04 nm and 478.09 nm and 488.42 nm and 478.8 nm and 481.12 nm | Shifts_ave (ANAP-incorporated TRPM8 [9]; [16]): 0.50 nm | Emission Peak at menthol activated state (ANAP-incorporated TRPM8 [9]; single measurement): 493.6 nm | Shifts in ANAP emission, Ave (ANAP-incorporated TRPM8 [10]; ANAP at P958): 2.76 | Shifts_ave (ANAP-incorporated TRPM8 [10]; ANAP incorporation site P958, average shift, menthol activated vs resting state): 2.32 nm | Shifts in emission (ANAP-incorporated TRPM8 [10]; ANAP incorporation site P958, menthol activated vs resting state, single measurement): 2.11 nm and 2.76 nm and 2.75 nm and 1.64 nm | Shifts_ave (ANAP-incorporated TRPM8 [11]): 0.65 nm | Shifts_ave (ANAP-incorporated TRPM8 [12]; [16]): -0.71 nm | Emission Peak at menthol activated state (ANAP-incorporated TRPM8 [12]; single measurement): 476.85 nm and 475.15 nm and 483.93 nm and 482.35 nm and 475.81 nm and 479.5 nm | Shifts_ave (ANAP-incorporated TRPM8 [13]): 1.02 nm | Shifts_ave (ANAP-incorporated TRPM8 [14]; [16]): 1.37 nm | Shifts in emission (ANAP-incorporated TRPM8 [14]; [17]): 1.34 nm and 1.42 nm and 1.82 nm and 1.04 nm and 1.21 nm | Emission Peak at menthol activated state (ANAP-incorporated TRPM8 [14]; single measurement): 481.75 nm and 488.11 nm and 492.24 nm and 485.58 nm and 489.77 nm | Shifts in ANAP emission, Ave (ANAP-incorporated TRPM8 [15]; ANAP at T922): -2.55 | Shifts_ave (ANAP-incorporated TRPM8 [15]; ANAP incorporation site T922, average shift, menthol activated vs resting state): -2.55 nm | Emission Peak at menthol activated state (ANAP-incorporated TRPM8 [15]; ANAP incorporation site T922, single measurement): 473.38 nm and 482.56 nm and 468.55 nm and 478.75 nm and 477.12 nm
